Assay results: PMC4348036, “Structural and Functional Investigation of Flavin Binding Center of the NqrC Subunit of Sodium-Translocating NADH:Quinone Oxidoreductase from Vibrio harveyi” (PLoS ONE, 2015)

Target: T1, holoNqrC' (NqrC subunit of Na+-translocating NADH:quinone oxidoreductase, soluble flavin-binding domain) (Vibrio harveyi, UniProt K5TWQ4)
T1 construct: soluble truncated NqrC without N-terminal transmembrane helix, residues 33-261, C-terminal 6xHis tag; E. coli, co-expressed with flavin transferase ApbE (plasmids pMshC3 + pdhis3); model covers residues 36-261
Experiment: X-ray crystallography, […] Å
Settings: covalent; phosphoester bond to Thr229, attached in vivo by flavin transferase ApbE; pH 6.8

T1 sequence (K5TWQ4 33-261): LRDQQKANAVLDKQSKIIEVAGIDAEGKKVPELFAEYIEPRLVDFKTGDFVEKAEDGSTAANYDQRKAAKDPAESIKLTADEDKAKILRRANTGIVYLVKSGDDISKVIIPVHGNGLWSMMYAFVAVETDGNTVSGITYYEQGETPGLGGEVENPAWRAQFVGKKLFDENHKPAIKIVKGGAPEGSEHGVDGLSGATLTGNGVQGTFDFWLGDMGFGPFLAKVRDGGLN

**Q.** With `Cc1cc2nc3c(=O)[nH]c(=O)nc-3n(C[C@H](O)[C@H](O)[C@H](O)COP(=O)(O)O)c2cc1C` [FMN] as the molecule, how does the “X-ray crystallography, 1.56 Å” value read?
**A.** The electron density of Thr229 side chain unambiguously demonstrates its flavinylation.
